The values that follow come from US10806746B2, “Di- and tri-cationic glycosylated antitumor ether lipids, L-gucosylated gaels and rhamnose-linked gaels as cytotoxic agents against epithelial cancer cells and cancer stem cells” (The University of Manitoba, priority 2014, dated 2020).

Data set [1] concerns JIMT-1 cells. In words: MTS viability assay, JIMT-1 breast cancer cells. The format is cell-based, human. The gist of the method: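 After 24 h plating in DMEM with 10% FBS, JIMT-1 cells were exposed to compound (0–30 μM) for 48 h. Viability was read as OD490 after 1–4 h with MTS reagent (20% vol/vol), blanked against cell-free wells. Values are mean±SD of 6 independent determinations.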

Data set [2] concerns EOC216B primary ovarian cancer cells. Description: MTS viability, primary epithelial ovarian cancer cells EOC216B. Format: cell-based. The settings on record: Homo sapiens. Here is the method: (§1) FIG. 2L to 2N. Effects of compounds 1, 56 or 69 on the viability of primary epithelial ovarian cancer cells grown as adherent and spheroid cultures. EOC cells were isolated from the ascites of ovarian cancer patients. Cells were seeded in regular 96-well plates and grown as adherent cultures. 24 h after seeding the cells were incubated with compounds 1, 56, or 69 for 48 h and the viability of the cells were determined with the MTS assay. Spheroid cultures were obtained by seeding the cells in ultra-low adhesion 96-well plates for 3 days. The spheroids were incubated with compounds 1, 56 or 69 for 3 days. At the end of the incubations, MTS reagent (20% vol/vol) was added and the plates were incubated for 1-4 h. The OD490 was read with a plate reader. Wells with media but no cells were treated in similar fashion and the values utilized as blank. The results represent the mean±standard deviation of 6 independent determinations.
(§2) 4.3.1.2. Isolation of primary epithelial ovarian cancer cells (EOC) from ascites fluid of ovarian cancer patients. The isolation of EOC cells from the ascites fluid of ovarian cancer patients was performed as described by Shepherd et al 2007, Nature protocols 1, 2643-2649). The cells were grown in DMEM/F12 supplemented with 10% FBS medium. 4.3.2. Isolation of breast cancer stem cells from BT-474, prostate cancer stem cells from DU145, and ovarian cancer stem cells from A2780cp cell lines and determination of the effect of GAELs on the viability of the cancer stem cells.

The test system of data set [3] is BT-474 cells. In words: MTS viability assay, BT-474 breast cancer cells. Format: cell-based, human. The gist of the method: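 BT-474 cells in DMEM/F12 with 10% FBS, seeded 24 h before 48 h exposure to compounds (0-30 μM). Viability read as OD490 after 1-4 h with MTS reagent (20% vol/vol), blanked against cell-free wells; mean±SD of 6 independent determinations.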

Data set [4] relates to EOC 216H primary ovarian cancer cells. Description: MTS viability, primary epithelial ovarian cancer cells EOC 216H. The format is cell-based. The settings on record: Homo sapiens. Here is the method: as §1, §2
For data set [5], the system named is EOC260 primary ovarian cancer cells. In words: MTS viability, primary epithelial ovarian cancer cells EOC260. The format is cell-based. The settings on record: Homo sapiens; adherent culture, 48 h. Here is the method: as §1
4.3.1.2. Isolation of primary epithelial ovarian cancer cells (EOC) from ascites fluid of ovarian cancer patients. The isolation of EOC cells from the ascites fluid of ovarian cancer patients was performed as described by Shepherd et al 2007, Nature protocols 1, 2643-2649). The cells were grown in DMEM/F12 supplemented with 10% FBS medium. 4.3.2. […]

Data set [6] has as its system EOC258 primary ovarian cancer cells. Description: MTS viability, primary epithelial ovarian cancer cells EOC258. Conditions: Homo sapiens. The format is cell-based. Here is the method: as §1, §2
Where [7] appears, read: Homo sapiens, JIMT-1, Table 5, 48 h, read-out: CC50 JIMT1.
The mark [8] stands for this setting: Homo sapiens, JIMT-1, Table 5, 48 h, read-out: CC90 JIMT1.
Where [9] appears, read: 72 h, spheroid culture, 3 days, read-out: CC50 values EOC216B Spheroid.
Setting [10] is: adherent culture, 48 h, read-out: CC50 values EOC216B Adherent.
Where [11] appears, read: adherent culture, 48 h, read-out: CC50 values EOC 216H Adherent.
[12] abbreviates: spheroid culture, 3 days, read-out: CC50 values EOC 216H Spheroid.
[13] abbreviates: 72 h, spheroid culture, 3 days, read-out: CC50 values EOC258 Spheroid.
Where [14] appears, read: adherent culture, 48 h, read-out: CC50 values EOC258 Adherent.
Where [15] appears, read: Table 1A, 48 h, read-out: CC50 values JIMT1.
Setting [16] is: Table 1B, 48 h, read-out: CC90 values JIMT1.
Where [17] appears, read: Table 1A, 48 h, MTS, read-out: CC50 values BT474.
Where [18] appears, read: Table 1B, 48 h, MTS, read-out: CC90 values BT474.

Like-named read-outs stand apart in the source and are kept apart here. Where only a bound is given, the exact number is not on record here.

Regarding `CCCCCCCCCCCCCCCCOC[C@H](CO[C@H]1O[C@H](CN)[C@@H](O)[C@H](O)[C@H]1N)OC` [Compound 1, 1-O-Hexadecyl-2-O-methyl-3-O-(2′,6′-diamino-2′,6′-dideoxy-α-D-glucopyranosyl)-sn-glycerol], the half-maximal cytotoxic concentration (CC50) in data set [1] (Homo sapiens, JIMT-1, Table 1A, 48 h, read-out: CC50 values JIMT1) was found to be 3.5 µM; in data set [1] (setting [7]), 3.5 µM; in data set [2] (setting [9]), 0.6 µM; in data set [2] (setting [10]) it was 0.24 µM; in data set [3] (Homo sapiens, BT-474, Table 1A, 48 h, MTS, read-out: CC50 values BT474), 7.5 µM; in data set [3] (Homo sapiens, BT-474, Table 5, 48 h, MTS, read-out: CC50 B1474), 7.5 µM. Besides, the 50% cytotoxic concentration (CC50) in data set [4] (setting [11]) was 0.15 µM; in data set [4] (setting [12]), 0.21 µM; in data set [5], 0.2 µM; in data set [6] (setting [13]) it was 0.6 µM; in data set [6] (setting [14]), 0.3 µM. The CC90 in data set [1] (Homo sapiens, JIMT-1, Table 1B, 48 h, read-out: CC90 values JIMT1) was 4.9 µM; in data set [1] (setting [8]) it was 4.9 µM; in data set [3] (Homo sapiens, BT-474, Table 1B, 48 h, MTS, read-out: CC90 values BT474) it was 9.5 µM.
For `CCCCCCCCCCCCCCCCOCCCO[C@@H]1O[C@H](CN)[C@@H](O)[C@H](O)[C@H]1N` [Compound 4, 1-O-Hexadecyl-2-deoxy-3-O-(2′6′-diamino-2′,6′-dideoxy-β-D-glucopyranosyl)-sn-glycerol], the values for the CC50 in data set [1] (setting [15]) and in data set [3] (setting [17]) were 4 µM and 8.5 µM, respectively. Moreover, the values for the CC90 in data set [1] (setting [16]) and in data set [3] (setting [18]) were 6 µM and 17.5 µM, respectively.
For `CCCCCCCCCCCCCCCCOCC(CO[C@@H]1O[C@H](CN)[C@@H](O)[C@H](O)[C@H]1N)O[C@@H]1O[C@H](CN)[C@@H](O)[C@H](O)[C@H]1N` (stereo partly drawn) [Compound 5, 1-O-Hexadecyloxy-2S/R, 3-di(-2′,6′-diamino-2′, 6′-dideoxy-β-D-glucopyranosyl)-glycerol] the same measures were > 30 µM, > 30 µM, > 30 µM and > 30 µM.
For `CCCCCCCCCCCCCCCCOC[C@@H](CN=[N+]=[N-])O[C@@H]1O[C@H](CO)[C@@H](O)[C@H](O)[C@H]1N` [Compound 6, 1-O-Hexadecyloxy-2R-(2′-amino-2′-deoxy-β-D-glucopyranosyl)-3-azido glycerol], the half-maximal cytotoxic concentration (CC50) was determined as 9.5 µM in data set [1] (setting [15]), 22 µM in data set [3] (setting [17]) and 22 µM in data set [3] (read-out: CC50 against BT 474 cell lines). Also, the CC90 was 13.5 µM in data set [1] (setting [16]) and 28 µM in data set [3] (setting [18]).
With `CCCCCCCCCCCCCCCCOCC(CO[C@@H]1OC(CO)[C@H](O)[C@H](O)C1N)OC` (stereo partly drawn) [Compound 69], the CC50 is 6.5 µM in data set [1] (Homo sapiens, JIMT-1, Table 2A, 48 h, read-out: CC50 values JIMT1); 6.5 µM in data set [1] (setting [7]); 1.25 µM in data set [2] (setting [9]); 0.56 µM in data set [2] (setting [10]); 1.02 µM in data set [4] (setting [11]); 1.5 µM in data set [4] (setting [12]). The 50% cytotoxic concentration (CC50) is 0.3 µM in data set [5], 1.2 µM in data set [6] (setting [13]) and 1.4 µM in data set [6] (setting [14]). Further, the CC90 in data set [1] (Homo sapiens, JIMT-1, Table 2B, 48 h, read-out: CC90 values JIMT1) came out at 11 µM; in data set [1] (setting [8]), 11 µM.
As for `CCCCCCCCCCCCCCCCOC[C@H](COC1O[C@H](CNCCCCCCCCCCCCN)[C@@H](O)[C@H](O)[C@H]1N)OC` (stereo partly drawn) [Compound 73, 1-O-Hexadecyl-2-O-methyl-3-O-[6′-N-(12-aminododecyl)-2′,6′-diamino-2′,6′-dideoxy-glucopyranoside]-sn-glycerol], the CC50 worked out at 3.4 µM in data set [1] (Table 6, 48 h, read-out: JIMT1 CC50) and 1.6 µM in data set [3] (Table 6, 48 h, MTS, read-out: BT474 CC50). In addition, the CC90 in data set [1] (Table 6, 48 h, read-out: JIMT1 CC90) is 4.6 µM; in data set [3] (Table 6, 48 h, MTS, read-out: BT474 CC90), 4.2 µM.
